This is an account of results in PubChem BioAssay (NCI).

Molecules are shown by their SMILES.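 Test compounds were applied to cells in 96-well plates for 48 hours at 5 doses. GI50 is the concentration that inhibits growth by half. At the TGI there is no net growth.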

Some test systems named below: 786-0 renal; EKVX NSCLC; HCT-116 colon; IGROV1 ovarian; NCI-H226 lung; OVCAR-8 ovarian; PC-3 prostate; SNB-75 CNS; COLO 205 colon; HL-60(TB) leukemia.
Common to all, as to assay: NCI-60 cell line screen, 48 h

On to `Cc1oc2c(c1C)S(=O)(=O)C(C#N)=C(N(C)C)N2`, for which the TGI in the assay with 786-0 renal, with EKVX NSCLC, with HCT-116 colon, in the assay with IGROV1 ovarian, in the assay with NCI-H226 lung and in the assay with OVCAR-8 ovarian was > 100 µM throughout. Further, the TGI in the assay with PC-3 prostate and with SNB-75 CNS was > 100 µM each time.

For the compound `O=C(c1ccc(Cl)cc1)N(C(=S)N1CCN(c2ccccn2)CC1)C1CCCCC1`, the TGI with 786-0 renal was > 100 µM; in the assay on COLO 205 colon, > 100 µM; in the assay with HCT-116 colon it was > 100 µM; with HL-60(TB) leukemia it was > 100 µM; in the assay on IGROV1 ovarian it was > 100 µM; in the assay on NCI-H226 lung, 70.5 µM. In addition, the TGI in the assay with OVCAR-8 ovarian and in the assay on SNB-75 CNS was > 100 µM each time.

`CCCCCCCCCCCCCCCCOP(=O)(O)OCC(N)C(=O)O` (stereo not given): the TGI is 41.6 µM with 786-0 renal; 38.1 µM in the assay on COLO 205 colon; > 100 µM with EKVX NSCLC; 25.4 µM in the assay with HCT-116 colon; 34.7 µM in the assay with IGROV1 ovarian; 50.4 µM in the assay with NCI-H226 lung. Further, the TGI in the assay with OVCAR-8 ovarian is > 100 µM; in the assay on PC-3 prostate it was 31.1 µM; with SNB-75 CNS, 45.7 µM.

Turning to `NC1=NS(=O)(=O)Nc2nc(-c3ccccc3)[nH]c21`, the TGI with 786-0 renal, in the assay on COLO 205 colon, with EKVX NSCLC, with HCT-116 colon, in the assay with HL-60(TB) leukemia and with IGROV1 ovarian was > 100 µM throughout. Besides, the TGI in the assay with NCI-H226 lung, in the assay with OVCAR-8 ovarian and in the assay on SNB-75 CNS was > 100 µM throughout.

Regarding `O=C(O)c1cnc(-n2[nH]c3c(c2=O)CCCC3)[nH]c1=O`, the TGI in the assay with 786-0 renal, in the assay on COLO 205 colon, in the assay with EKVX NSCLC, with HCT-116 colon, in the assay with HL-60(TB) leukemia and with IGROV1 ovarian was > 100 µM in each case. Moreover, the TGI in the assay with NCI-H226 lung, in the assay with OVCAR-8 ovarian and in the assay on PC-3 prostate was > 100 µM in each case.

In the case of `C=C(NC(=O)C(=C)NC(=O)c1csc(C2=NC3c4csc(n4)C4NC(=O)c5csc(n5)C(C(C)(O)C(C)O)NC(=O)C5CSC(=N5)/C(=C/C)NC(=O)C(C(C)O)NC(=O)c5csc(n5)C3(CC2)NC(=O)C(C)NC(=O)C(=C)NC(=O)C(C)NC(=O)C(C(C)CC)NC2C=Cc3c(C(C)O)cc(nc3C2O)C(=O)OC4C)n1)C(N)=O` (stereo not given), the TGI in the assay on 786-0 renal was 3.26 µM; with COLO 205 colon it was 0.836 µM; in the assay with EKVX NSCLC, > 44.1 µM; with HCT-116 colon it was 1.77 µM; in the assay with HL-60(TB) leukemia, > 100 µM; in the assay with IGROV1 ovarian it was 63.8 µM. In addition, the values for the TGI with NCI-H226 lung, with OVCAR-8 ovarian and in the assay with SNB-75 CNS were 3.8 µM, 10.8 µM and > 24 µM, respectively. Also, the GI50 is 0.299 µM in the assay with COLO 205 colon and 1.6 µM in the assay on OVCAR-8 ovarian.

Regarding `COc1ccc([C@@H]2CC(=O)N2)cc1`, the TGI in the assay with 786-0 renal, with COLO 205 colon, in the assay on EKVX NSCLC, with HCT-116 colon, in the assay with HL-60(TB) leukemia and in the assay with IGROV1 ovarian was > 100 µM throughout. In addition, the TGI in the assay with NCI-H226 lung, with OVCAR-8 ovarian and with SNB-75 CNS was > 100 µM in each case.

With `O=C(O)c1ccc(C2=Cc3cc(Cl)ccc3OC2)cc1`, the TGI with 786-0 renal, with COLO 205 colon, in the assay with EKVX NSCLC, with HCT-116 colon, in the assay on HL-60(TB) leukemia and in the assay with IGROV1 ovarian was > 100 µM each time. The TGI with NCI-H226 lung, in the assay on OVCAR-8 ovarian and with SNB-75 CNS was > 100 µM in each case.

`COC(=O)c1c(C#N)c(N)nc2c1CCC2`: the TGI in the assay on 786-0 renal, in the assay on COLO 205 colon, in the assay on EKVX NSCLC, in the assay with HCT-116 colon, with HL-60(TB) leukemia and in the assay with IGROV1 ovarian was > 100 µM throughout. The TGI with NCI-H226 lung, with OVCAR-8 ovarian and in the assay on PC-3 prostate was > 100 µM throughout.

For `C=C1C(=O)O[C@@H]2[C@H](O)[C@@H](C)[C@@H]3C=CC(=O)[C@@]3(C)[C@@H](OC(=O)/C(C)=C/C)[C@H]12`, the TGI is 1.11 µM in the assay with COLO 205 colon; 1.93 µM in the assay with EKVX NSCLC; 1.03 µM with HCT-116 colon; 9.82 µM with HL-60(TB) leukemia; 2.02 µM in the assay on IGROV1 ovarian; 8.97 µM with NCI-H226 lung. Besides, the TGI is 2.72 µM with OVCAR-8 ovarian and 3.63 µM in the assay on SNB-75 CNS.

With `COc1cc(OC)c2c3c(OC)cc(OC)c4c(=O)c(O)c(C[C@@H](C)O)c(c5c(C[C@@H](C)O)c(O)c(=O)c1c25)c43`, the TGI with 786-0 renal is 44.8 µM; with COLO 205 colon, 16.7 µM; with EKVX NSCLC, > 100 µM; with HCT-116 colon, 30.1 µM; with HL-60(TB) leukemia it was 30.7 µM; with IGROV1 ovarian it was 49.2 µM. Moreover, the results for the TGI in the assay with NCI-H226 lung, in the assay on OVCAR-8 ovarian and in the assay on SNB-75 CNS were 44.7 µM, 58.4 µM and 62.1 µM, respectively.

`O=C(NC(=O)c1cc(-c2ccccc2)n[nH]1)c1ccccc1`: the TGI in the assay on 786-0 renal, with COLO 205 colon, in the assay on EKVX NSCLC, with HCT-116 colon, with IGROV1 ovarian and with NCI-H226 lung was > 100 µM each time. The TGI in the assay on OVCAR-8 ovarian, with PC-3 prostate and in the assay on SNB-75 CNS was > 100 µM each time.

Take `O=[N+]([O-])C(/C=N/Nc1ccccc1)/C=N/Nc1ccccc1`: the TGI in the assay on 786-0 renal, with COLO 205 colon, in the assay with EKVX NSCLC, in the assay on HCT-116 colon, in the assay on HL-60(TB) leukemia and with IGROV1 ovarian was > 100 µM each time. The TGI with NCI-H226 lung, in the assay on OVCAR-8 ovarian and in the assay with SNB-75 CNS was > 100 µM each time.

As for `O=C1CC[C@@]2(O)[C@H]3Cc4ccc(-c5ccccc5)c5c4[C@@]2(CCN3CC2CC2)[C@H]1O5`, the TGI with 786-0 renal was 30.3 µM; in the assay with COLO 205 colon it was 35 µM; in the assay on EKVX NSCLC, 52.3 µM; in the assay with HCT-116 colon, 32 µM; in the assay on HL-60(TB) leukemia, 37.3 µM; with IGROV1 ovarian, > 100 µM. In addition, the TGI in the assay on NCI-H226 lung came to 50.1 µM; in the assay with OVCAR-8 ovarian, 32.4 µM; in the assay on PC-3 prostate, 46.7 µM.
